This note sets out measurements from ChEMBL document CHEMBL1135229, “Novel potent antagonists of human neuropeptide Y Y5 receptors. Part 3: 7-methoxy-1-hydroxy-1-substituted tetraline derivatives” (Bioorg Med Chem Lett, 2002).

One assay concerns the target T1, Neuropeptide Y receptor type 5 (Homo sapiens, UniProt Q15761).
T1 sequence (Q15761 whole entry): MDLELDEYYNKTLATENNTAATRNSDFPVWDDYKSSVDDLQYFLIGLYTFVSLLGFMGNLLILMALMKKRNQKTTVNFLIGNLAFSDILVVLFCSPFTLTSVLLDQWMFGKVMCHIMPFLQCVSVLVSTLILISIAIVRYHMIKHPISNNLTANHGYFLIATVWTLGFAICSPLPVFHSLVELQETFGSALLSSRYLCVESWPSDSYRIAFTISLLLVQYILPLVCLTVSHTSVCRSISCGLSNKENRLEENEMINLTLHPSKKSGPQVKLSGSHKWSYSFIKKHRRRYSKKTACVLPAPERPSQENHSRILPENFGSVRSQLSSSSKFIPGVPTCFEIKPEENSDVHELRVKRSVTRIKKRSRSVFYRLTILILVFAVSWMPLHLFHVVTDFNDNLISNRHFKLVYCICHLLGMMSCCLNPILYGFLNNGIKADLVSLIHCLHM
The experiment in a line: Inhibition of 125 I-PYY binding to human Neuropeptide Y receptor type 5.
Broadly, the IC50 is the concentration at which inhibition is half-maximal. Read a low IC50 as greater potency. With `COc1ccc2c(c1)CC(NCC1CCN(C(=O)CNS(=O)(=O)c3cccc4ccccc34)CC1)CCC2` (stereo not drawn), the IC50 was determined as 3.7 nM. Still for that read-out and setting: with `COc1ccc2c(c1)C(O)(CNCCC1CCN(CCNS(=O)(=O)c3cccc4ccccc34)CC1)CCC2` (stereo not drawn) the figure was 24 nM; with `COc1ccc2c(c1)CC(NCC1CCN(C(=O)Cn3c(=O)sc4ccc(Cl)cc43)CC1)CCC2` (stereo not drawn), 0.7 nM; with `COc1ccc2c(c1)C(O)(CNCC1CCN(CCNS(=O)(=O)c3cccc(Cl)c3C)CC1)CCC2` (stereo not drawn), 11 nM. In turn, `COc1ccc2c(c1)CC(O)(CNCC1CCN(CCNS(=O)(=O)c3cccc4ccccc34)CC1)CCC2` (stereo not drawn) yielded an IC50 of 56 nM. In the case of `COc1ccc2c(c1)CC(CNC(=O)C1CCN(C(=O)Cn3c(=O)sc4ccc(Cl)cc43)CC1)CCC2` (stereo not drawn), the IC50 is 1.2 nM. This IC50 is about 47-fold lower than that of the compound before. On the same count and under the same terms, with `COc1ccc2c(c1)C(O)(CNCC1CCN(CCNS(=O)(=O)c3cccc(C)c3)CC1)CCC2` (stereo not drawn) the figure was 13 nM. `COc1ccc2c(c1)C(O)(CNCC1CCN(CCNS(=O)(=O)c3cccc4ccccc34)CC1)CCC2` (stereo not drawn): the IC50 was determined as 0.54 nM. Compared with the last compound, the IC50 is about 24-fold lower. Compound `COc1ccc2c(c1)C(O)(CNC(=O)C1CCN(C(=O)Cn3c(=O)sc4ccc(Cl)cc43)CC1)CCC2` (stereo not drawn) registered a concentration for half-maximal inhibition (IC50) of 1 nM.

The compound `COc1ccc2c(c1)C(O)(CNCC1CCN(CCNS(=O)(=O)c3cccc4ccccc34)CC1)CC2` (stereo not drawn) returned an IC50 of 66 nM. Regarding `COc1ccc2c(c1)C(O)(CNCC1CCN(C(=O)Cn3c(=O)sc4ccc(Cl)cc43)CC1)CCC2` (stereo not drawn), the IC50 was found to be 28 nM. Same read-out and setting: with `O=C(Nc1nccs1)C1CCN(C(=O)Cn2c(=O)sc3ccc(Cl)cc32)CC1` [FR-73966] the figure was 53 nM.

A further assay concerns the target T2, Neuropeptide Y receptor type 1 (Homo sapiens, UniProt P25929).
T2 sequence (P25929 whole entry): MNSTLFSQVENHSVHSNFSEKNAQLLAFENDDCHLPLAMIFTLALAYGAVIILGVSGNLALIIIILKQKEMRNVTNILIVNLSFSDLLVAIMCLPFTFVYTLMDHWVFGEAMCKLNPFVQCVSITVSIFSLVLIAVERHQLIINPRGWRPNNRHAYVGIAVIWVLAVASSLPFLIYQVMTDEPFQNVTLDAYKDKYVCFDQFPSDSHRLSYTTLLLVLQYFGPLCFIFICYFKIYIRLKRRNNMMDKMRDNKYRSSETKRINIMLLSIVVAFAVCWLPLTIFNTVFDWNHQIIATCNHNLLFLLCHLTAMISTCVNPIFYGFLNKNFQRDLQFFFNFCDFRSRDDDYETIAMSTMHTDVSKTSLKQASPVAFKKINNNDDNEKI
The experiment in a line: Compound was evaluated for the inhibitory activity against human Neuropeptide Y receptor type 1.
Consider `COc1ccc2c(c1)CC(NCC1CCN(C(=O)Cn3c(=O)sc4ccc(Cl)cc43)CC1)CCC2` (stereo not drawn), for which the midpoint of inhibition, the IC50, lay at 12000 nM.
